# Reference: ChEMBL document CHEMBL1150932, “Norepinephrine-augmenting lipolytic effectors from Astilbe thunbergii rhizomes” (J Nat Prod, 1998)
# Calls of active or inactive are those of the source. No cut-off for these calls is given here.
# Legend:
# [1] = Stimulation of ACTH-induced lipolysis in Wistar rat fat cells assessed as free fatty acid release per mL of packed fat cells at 100 ug after 1 hr relative to ACTH; assay type: functional
# [2] = species on record: Rattus norvegicus; assay: Enhancement of norepinephrine-induced lipolysis in Wistar rat fat cells assessed as free fatty acid release per mL of packed fat cells after 1 hr relative to norepinephrine; assay type: functional, cell-based
# [3] = species on record: Rattus norvegicus; assay: Inhibition of insulin-induced lipogenesis from [U-14C]glucose in Wistar rat fat cells after 1 hr by liquid scintillation counting; assay type: functional, cell-based
# [4] = species on record: Rattus norvegicus; assay: Enhancement of norepinephrine-induced lipolysis in cell-free system consisting endogenous lipid droplets from Wistar rat fat cells assessed as free fatty acid release per mL of packed fat cells after 1 hr in presence of hormone-sensitive lipase; assay type: functional
# [5] = Effect on lipolysis in cell-free system consisting sonicated lipid droplets assessed as free fatty acid release at 1000 ug in presence of hormone-sensitive lipase relative to untreated control; assay type: physicochemical
# [6] = species on record: Rattus norvegicus; assay: Induction of lipolysis in Wistar rat fat cells assessed as free fatty acid release per mL of packed fat cells after 1 hr relative to norepinephrine; assay type: functional, cell-based
# [7] = Stimulation of ACTH-induced lipolysis in Wistar rat fat cells assessed as free fatty acid release per mL of packed fat cells at 1000 ug after 1 hr relative to ACTH; assay type: functional
# [8] = Enhancement of norepinephrine-induced lipolysis in cell-free system consisting sonicated lipid droplets assessed as free fatty acid release at 1000 ug in presence of hormone-sensitive lipase relative to untreated control; assay type: physicochemical
Activity [5],Activity [8],SMILES,Activity [1],Activity [2],Activity [3],Activity [4],Activity [6],Activity [7]
95.7%,98.5%,C[C@@H]1O[C@@H](O[C@H]2C(=O)c3c(O)cc(O)cc3O[C@@H]2c2ccc(O)c(O)c2)[C@H](O)[C@H](O)[C@H]1O [ASTILBIN],195.6%,Active,Active,Active,inactive,278.4%
98.6%,96.2%,COc1c(O)cc2c(c1O)[C@@H]1O[C@H](CO)[C@@H](O)[C@H](O)[C@H]1OC2=O [BERGENIN],105.9%,Active,Active,Active,inactive,356.9%
98.5%,100%,C[C@@H]1O[C@@H](Oc2coc3cc(O)cc(O)c3c2=O)[C@H](O)[C@H](O)[C@H]1O [EUCRYPHIN],79.4%,Active,Active,Active,inactive,332.8%
